Data from ChEMBL document CHEMBL5126543, “Tandem construction of biological relevant aliphatic 5-membered N-heterocycles” (Eur J Med Chem, 2022).

Columns and labels:
HeLa = assay: Cytotoxicity against human HeLa cells treated for 72 hrs by MTT assay; format: functional, cell-based
SK-BR-3 = assay: Cytotoxicity against human SK-BR-3 cells treated for 72 hrs by MTT assay; format: functional, cell-based; conditions: SK-BR-3, 72 h
MCF7 = assay: Cytotoxicity against human MCF7 cells treated for 72 hrs by MTT assay; format: functional, cell-based; conditions: MCF7, 72 h
A549 = assay: Cytotoxicity against human A549 cells treated for 72 hrs by MTT assay; format: functional, cell-based; conditions: A549, 72 h
PC-3 = assay: Cytotoxicity against human PC-3 cells treated for 72 hrs by MTT assay; format: functional, cell-based; conditions: PC-3, 72 h
C32 = assay: Antiproliferative activity against human C32 cells measured after 72 hrs by WST-1 assay; format: functional, cell-based; conditions: C32, 72 h
MDA-MB-231 = assay: Antiproliferative activity against human MDA-MB-231 cells measured after 72 hrs by WST-1 assay; format: functional, cell-based; conditions: MDA-MB-231, 72 h
SNB-19 = assay: Antiproliferative activity against human SNB-19 cells measured after 72 hrs by WST-1 assay; format: functional, cell-based; conditions: SNB-19, 72 h
[1] = Cytotoxicity against HFF-1 cells measured after 72 hrs by WST-1 assay; format: toxicity, cell-based; conditions: human

SMILES	IC50 (HeLa) [µM]	IC50 (SK-BR-3) [µM]	IC50 (MCF7) [µM]	IC50 (A549) [µM]	IC50 (PC-3) [µM]	IC50 (C32) [µM]	IC50 (MDA-MB-231) [µM]	IC50 (SNB-19) [µM]	IC50 at 72 h [1] [µM]
Clc1ccc(-c2cc(Nc3ccnc4cc(Cl)ccc34)ccc2CN2CCOCC2)cc1	> 200	2.98	170	> 200	11.7				
Clc1ccc(-c2cc(Nc3ccnc4cc(Cl)ccc34)ccc2CN2CCCC2)cc1	32	32.7	> 200	> 200	42.4				
Clc1ccc2c(Nc3ccc(CN4CCCCC4)c(-c4ccccc4)c3)ccnc2c1	5.57	64.3	> 200	> 210	74.4				
CCN(CC)Cc1ccc(Nc2ccnc3cc(Cl)ccc23)cc1-c1ccccc1	> 200	3.65	> 200	33.6	34.2				
Clc1ccc2c(Nc3ccc(CN4CCOCC4)c(-c4ccccc4)c3)ccnc2c1	54.4	76.5	> 200	69	11.7				
Clc1ccc2c(Nc3ccc(CN4CCCC4)c(-c4ccccc4)c3)ccnc2c1	< 1	0.009	7.99	4.38	44				
CN1CCN(Cc2ccc(Nc3ccnc4cc(Cl)ccc34)cc2-c2ccc(Cl)cc2)CC1	< 1	16.8	25	43.5	24.2				
Clc1ccc(-c2cc(Nc3ccnc4cc(Cl)ccc34)ccc2CN2CCCCC2)cc1	> 200	2.98	> 200	> 200	> 200				
Clc1ccc2c(Nc3ccc(CN4CCCC4)cc3)ccnc2c1	28	12.7	46.9	58.8	42.7				
CCN(CC)Cc1ccc(Nc2ccnc3cc(Cl)ccc23)cc1	2.03	121	> 250	> 250	> 250				
Clc1ccc2c(Nc3ccc(CN4CCCCC4)cc3)ccnc2c1	< 1	33.9	69.9	> 250	149				
Clc1ccc2c(Nc3ccc(CN4CCOCC4)cc3)ccnc2c1	< 1	6.16	69.5	> 250	11.7				
CC(C)(C)NCc1ccc(Nc2ccnc3cc(Cl)ccc23)cc1	36	37.3	> 250	197	149				
Cn1cnc2nc(SCC#CCN3CCOCC3)nc(SCC#CCN3CCOCC3)c21						21.5	50.8	21.5	0.37
Cn1c(SCC#CCN2CCCCC2)nc2c1c(=O)[nH]c(=O)n2C						355	364	166	30.4
Cn1c(SCC#CCN2CCCC2)nc2c1c(=O)[nH]c(=O)n2C						51.1	472	177	34.3
Cn1c(SCC#CCN2CCCC2)nc2nc(Cl)nc(SCC#CCN3CCCC3)c21						4.55	3.83	0.52	3.63
